From the supplement of paper PMC10307832

Columns and labels:
Test in all cases: relative viability (nuclei count vs DMSO), 5 days (fraction); higher = more cells survive
Selumetinib + Pictilisib = compound: Cn1cnc2c(F)c(Nc3ccc(Br)cc3Cl)c(C(=O)NOCCO)cc21 [Selumetinib] + CS(=O)(=O)N1CCN(Cc2cc3nc(-c4cccc5[nH]ncc45)nc(N4CCOCC4)c3s2)CC1 [Pictilisib] (partner 1 µM)
In short: (§1)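 Values are medians from duplicate plates. Each reflects relative viability, defined as the nuclei count of treated wells over that of vehicle wells. Lung cancer cell lines in 1536-well plates were pin-tool dosed one day after seeding with one drug alone or with a fixed anchor-drug dose plus five library-drug doses (not always all listed) in √10 steps, then fixed, stained and imaged at 4× after 5 days.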

Selumetinib + Pemetrexed = compound: Cn1cnc2c(F)c(Nc3ccc(Br)cc3Cl)c(C(=O)NOCCO)cc21 [Selumetinib] + Nc1nc2[nH]cc(CCc3ccc(C(=O)N[C@@H](CCC(=O)O)C(=O)O)cc3)c2c(=O)[nH]1 [Pemetrexed] (partner 0.2 µM)
In short: as §1

Venetoclax + Alpelisib = compound: CC1(C)CCC(CN2CCN(c3ccc(C(=O)NS(=O)(=O)c4ccc(NCC5CCOCC5)c([N+](=O)[O-])c4)c(Oc4cnc5[nH]ccc5c4)c3)CC2)=C(c2ccc(Cl)cc2)C1 [Venetoclax] + Cc1nc(NC(=O)N2CCC[C@H]2C(N)=O)sc1-c1ccnc(C(C)(C)C(F)(F)F)c1 [Alpelisib] (partner 2 µM)
In short: as §1

Venetoclax + Palbociclib = compound: CC1(C)CCC(CN2CCN(c3ccc(C(=O)NS(=O)(=O)c4ccc(NCC5CCOCC5)c([N+](=O)[O-])c4)c(Oc4cnc5[nH]ccc5c4)c3)CC2)=C(c2ccc(Cl)cc2)C1 [Venetoclax] + CC(=O)c1c(C)c2cnc(Nc3ccc(N4CCNCC4)cn3)nc2n(C2CCCC2)c1=O [Palbociclib] (partner 0.5 µM)
In short: as §1

Cell Line | relative viability (Selumetinib + Pictilisib; first compound 0.02 µM) | relative viability (Selumetinib + Pictilisib; first compound 0.06325 µM) | relative viability (Selumetinib + Pictilisib; first compound 0.2 µM) | relative viability (Selumetinib + Pictilisib; first compound 0.6325 µM) | relative viability (Selumetinib + Pemetrexed; first compound 0.02 µM) | relative viability (Selumetinib + Pemetrexed; first compound 0.06325 µM) | relative viability (Selumetinib + Pemetrexed; first compound 0.2 µM) | relative viability (Selumetinib + Pemetrexed; first compound 0.6325 µM) | relative viability (Venetoclax + Alpelisib; first compound 0.01 µM) | relative viability (Venetoclax + Alpelisib; first compound 0.03162 µM) | relative viability (Venetoclax + Alpelisib; first compound 0.1 µM) | relative viability (Venetoclax + Alpelisib; first compound 0.3162 µM) | relative viability (Venetoclax + Alpelisib; first compound 1 µM) | relative viability (Venetoclax + Palbociclib; first compound 0.01 µM) | relative viability (Venetoclax + Palbociclib; first compound 0.03162 µM) | relative viability (Venetoclax + Palbociclib; first compound 0.1 µM) | relative viability (Venetoclax + Palbociclib; first compound 0.3162 µM) | relative viability (Venetoclax + Palbociclib; first compound 1 µM)
COR-L23 | 0.84 | 0.699 | 0.784 | 0.713 | 0.202 | 0.217 | 0.21 | 0.194 | 0.7 | 0.753 | 0.745 | 0.766 | 0.741 | 0.326 | 0.283 | 0.184 | 0.286 | 0.282
HCC-827 | 0.82 | 1.23 | 0.79 | 0.904 | 0.25 | 0.277 | 0.269 | 0.288 | 0.954 | 0.977 | 1 | 0.976 | 0.994 | 0.526 | 0.627 | 0.463 | 0.442 | 0.534
NCI-H1437 | 0.237 | 0.178 | 0.157 | 0.149 | 0.302 | 0.253 | 0.246 | 0.259 | 0.985 | 0.989 | 1.05 | 0.938 | 0.926 | 0.314 | 0.303 | 0.282 | 0.285 | 0.251
PC-14 | 0.723 | 0.551 | 0.548 | 0.519 | 0.123 | 0.114 | 0.107 | 0.127 | 0.882 | 0.931 | 1.05 | 0.952 | 0.776 | 0.521 | 0.514 | 0.546 | 0.574 | 0.437
NCI-H2228 | 0.247 | 0.283 | 0.354 | 0.314 | 0.375 | 0.394 | 0.333 | 0.33 | 0.696 | 0.842 | 0.698 | 0.628 | 0.757 | 0.708 | 0.776 | 0.566 | 0.687 | 0.746
BEN | 0.632 | 0.545 | 0.461 | 0.534 | 0.806 | 0.765 | 0.697 | 0.888 | 0.976 | 1.07 | 0.756 | 1.06 | 1.01 | 0.519 | 0.469 | 0.49 | 0.489 | 0.498
LOU-NH91 | 0.503 | 0.496 | 0.523 | 0.539 | 0.438 | 0.397 | 0.458 | 0.385 | 0.653 | 0.802 | 0.689 | 0.791 | 0.759 | 0.504 | 0.546 | 0.505 | 0.516 | 0.519
EKVX | 0.395 | 0.391 | 0.317 | 0.243 | 0.342 | 0.361 | 0.323 | 0.307 | 0.82 | 1 | 0.871 | 0.982 | 0.786 | 0.438 | 0.397 | 0.378 | 0.331 | 0.363
NCI-H1355 | 0.369 | 0.409 | 0.315 | 0.296 | 1.01 | 0.881 | 0.898 | 0.788 | 0.842 | 0.782 | 0.784 | 0.785 | 0.805 | 0.428 | 0.387 | 0.404 | 0.424 | 0.356
NCI-H1666 | 0.346 | 0.22 | 0.264 | 0.239 | 0.811 | 0.775 | 0.765 | 0.755 | 0.8 | 0.89 | 1.13 | 0.971 | 1.04 | 0.625 | 0.656 | 0.631 | 0.627 | 0.656
NCI-H2126 | 0.477 | 0.434 | 0.408 | 0.416 | 0.627 | 0.612 | 0.684 | 0.568 | 0.807 | 0.728 | 0.759 | 0.819 | 0.796 | 0.368 | 0.34 | 0.363 | 0.374 | 0.336
NCI-H1793 | 0.288 | 0.286 | 0.314 | 0.28 | 0.782 | 0.601 | 0.435 | 0.517 | 0.8 | 0.737 | 0.595 | 0.711 | 0.613 | 0.296 | 0.304 | 0.306 | 0.327 | 0.27
LCLC-103H | 0.551 | 0.655 | 0.545 | 0.53 | 0.437 | 0.479 | 0.5 | 0.519 | 1.04 | 0.983 | 1.04 | 1 | 0.974 | 0.518 | 0.479 | 0.491 | 0.437 | 0.428
COR-L 105 | 0.342 | 0.312 | 0.338 | 0.347 | 1.11 | 1.02 | 0.841 | 0.582 | 0.983 | 0.959 | 1.13 | 0.91 | 1.02 | 0.414 | 0.399 | 0.384 | 0.365 | 0.413
HARA | 0.285 | 0.391 | 0.31 | 0.15 | 0.24 | 0.179 | 0.224 | 0.217 | 0.728 | 0.822 | 0.787 | 0.891 | 0.787 | 0.289 | 0.279 |  | 0.26 | 0.272
NCI-H2023 | 0.211 | 0.186 | 0.198 | 0.223 | 0.247 | 0.137 | 0.239 | 0.195 | 0.574 | 0.573 | 0.544 | 0.553 | 0.551 | 0.382 | 0.338 | 0.349 | 0.329 | 0.33
